# In patent publication US20230270148A1, “BITTER BLOCKERS AND RELATED METHODS OF USE” (Conagen Inc., priority 2020, published 2023):
# Assays:
# [1] = system: peach-flavored energy drink (caffeine, B vitamins); assay: Sensory evaluation: bitterness reduction of a peach-flavored energy drink; assay type: in vivo; conditions: dosage per sample
# Protocol: The bitterness blocker candidates listed in Table 1 were prepared into a 1% sample solution with propylene glycol and heated to ensure complete solubilization. […] A trained sensory evaluator was asked to estimate the perceived bitterness reduction against the control, as well as to provide comments on how the addition of the individual sample solution modulated the taste and mouth feel profile of the resulting peach-flavored energy drink.
# dark roast coffee = assay: Sensory evaluation: bitterness reduction of dark roast coffee; assay type: in vivo; conditions: dosage 50 or 100 ppm per sample
# Protocol: The bitterness blocker candidates listed in Table 1 were prepared into a 1% sample solution with propylene glycol and heated to ensure complete solubilization. […] A trained sensory evaluator was asked to estimate the perceived bitterness reduction against the control, as well as to provide comments on how the addition of the individual sample solution modulated the taste and mouth feel profile of the resulting dark roast coffee.
# caffeine in water = assay: Two-alternative forced choice (2AFC) difference test; assay type: in vivo
# Protocol: The bitter blocker candidates BB09, BB11, and BB13 were subject to a two-alternative forced choice (2AFC) difference test wherein panelists were presented Control Caffeine solutions and Test solutions containing caffeine and one of three bitterness blocker candidates (BB09, BB 11, or BB13). Panelists were asked to evaluate the two samples and answer the question, “which one is more hitter?”
# BB09 and BB11 were tested first. Three ounces of control (caffeine in water), BB09 in caffeine water, and BB11 in caffeine water were presented at room temperature in separate plastic souffle cups labeled with 3-digit codes. Ten sensory trained panelists evaluated each sample in three repetitions with a 10 minute break between repetitions. Panelists then completed the 2AFC. Data was collected on EveQuestion and analyzed on XLSTAT. Testing was conducted at Sensations Research according to FEMA guidelines.
# BB13 was tested separately. Two ounces of control (caffeine in water), BB13 in caffeine water were presented at room temperature in separate plastic souffle cups labeled with 3-digit codes. Fifteen participants evaluated each sample in two repetitions with a 10 minute break between repetitions for a total of thirty evaluations as per the FEMA guidelines. Panelists then completed the 2AFC to identify the more bitter sample. Data was collected and analyzed on Compusense.
# [2] = system: bitter-responsive human taste bud tissue-derived cells (hTBEC); assay: ATP secretion detection assay (luminescence); assay type: cell-based
# Protocol: (§1) The bitter blocker candidates were further characterized using bitter-responsive human taste bud tissue-derived cells (hTBEC) platforms and bioassays. Bitter-responsive hTBECs were treated with hitter blocker candidates and various bitter agonists to assess the efficacy of each bitter blocker candidate in reducing the bitterness of each of the various bitter agonists.
# One industry standard bitter agonist was used as a control (L-Praziquantel), and five bitter blocker controls were used (Senomyx BB68, STX-001, sodium gluconate, eridictyol, and homoeridictyol).
# BB09, BB11, and BB13 were first tested at various concentrations in combination with 100 μM Dextromethorphan-HBr.
# Next, bitter blocker concentration ranges were narrowed (100 μM-1,000 μM) and compared to a fixed concentration of stimulus. […] BB13 was evaluated further by real time ATP secretion detection in pooled hTBEC 66 cells treated with 300 μM Theobromine.
# Each culture was treated with BB09, BB11, BB13, STX001, or Senomyx BB68, as well as either Dextromethorphan-HBr at 1000 μM (FIGS. 18A-18C), Theobromine at 1,000 μM (FIGS. 19A-19C), Rebaudioside A at 1 mM (FIGS. 20A-20C), or Caffeine at 3 mM (FIGS. 21A-21C).
# [3] = system: individual donor-derived hTBECs; assay: Cell calcium mobilization assay; assay type: cell-based, human
# Protocol: as §1
# Calcium mobilization response following treatment of 100 μM Dextromethorphan-HBr, 3000 μM Theobromine, and 3 mM Caffeine was evaluated in individual donor-derived hTBECs.
# [4] = of thirty evaluations (15 participants, 2 repetitions)
compound,measurement,setting,value
"O=C1C[C@@H](c2ccc(O)c(O)c2)Oc2c1c(O)cc(O)c2[C@@H]1O[C@H](CO)[C@@H](O)[C@H](O)[C@H]1O [BB13, Eriodictyol-8-C-β-glucoside]",Comments,[1],Excellent bitter blocking
same,Comments,dark roast coffee,Very smooth with nice upfront
same,significance of bitterness difference control vs sample,caffeine in water; 90% and 95% confidence interval (FIG. 11),control sample was significantly more bitter
same,panelists' description of samples,caffeine in water; blocker in caffeine water,"initial sweetness that mask the bitterness, less lingering bitterness, and having a nutty taste"
same,evaluations identifying the sample containing the blocker as more bitter,caffeine in water; [4],three
same,evaluations selecting control as more bitter,caffeine in water; [4],Twenty-seven
same,inhibition of luminescence signal from Dextromethorphan-HBr,"[2]; 100 μM Dextromethorphan-HBr, blocker 100 μM-1,000 μM, upper concentrations, individual donor-derived hTBECs (FIG. 14A)",inhibited luminescence signal
same,inhibitory activity against Dextromethorphan-HBr (ATP secretion),"[2]; 100 μM Dextromethorphan-HBr, blocker 1 mM, all three hTBEC cultures (FIG. 22A)",consistently showed inhibitory activity
same,inhibition of luminescence activity of Dextromethorphan-HBr (ATP secretion),"[2]; 100 μM Dextromethorphan-HBr, various blocker concentrations (FIG. 12)",able to inhibit
same,inhibition of luminescence signal from L-Praziquantel,"[2]; 400 μM L-Praziquantel, blocker 100 μM-1,000 μM, upper concentrations, individual donor-derived hTBECs (FIG. 14B)",inhibited luminescence signal
same,inhibitory activity against L-Praziquantel (ATP secretion),"[2]; 400 μM L-Praziquantel, blocker 1 mM, all three hTBEC cultures (FIG. 24)",consistently showed inhibitory activity
same,inhibition of the L-Praziquantel response (ATP secretion),"[2]; 400 μM L-Praziquantel, pooled donor-derived hTBEC (FIG. 13)",showed inhibition
same,inhibitory activity against Rebaudioside A (ATP secretion),"[2]; 1 mM Rebaudioside A, blocker 1 mM, all three hTBEC cultures (FIG. 23A)",consistently showed inhibitory activity
same,real time Rebaudioside A-induced ATP secretion,"[2]; 1 mM Rebaudioside A, blocker 1,000 μM, pooled hTBEC 56 cultures (FIG. 17)",attenuated
same,inhibitory activity against Theobromine (ATP secretion),"[2]; 1,000 μM Theobromine, blocker 1 mM, all three hTBEC cultures (FIG. 22B)",consistently showed inhibitory activity
same,inhibitory activity against Caffeine (ATP secretion),"[2]; 3 mM Caffeine, blocker 1 mM, all three hTBEC cultures (FIG. 23B)",consistently showed inhibitory activity
same,inhibition of Rebaudioside A-induced ATP secretion,"[2]; 3 mM Rebaudioside A, pooled hTBEC 56 cultures, blocker 100, 300 or 1,000 μM (FIG. 16)",strongest inhibition
same,inhibition of the bitter agonists (ATP secretion),"[2]; hTBEC 66, hTBEC 56, hTBEC Donor H, Dextromethorphan-HBr at 1000 μM, Theobromine 1,000 μM, Rebaudioside A 1 mM or Caffeine 3 mM (FIGS. 18-21)",most consistent inhibition
same,real time ATP secretion response to Theobromine,"[2]; pooled hTBEC 66 cells, 300 μM Theobromine, blocker at 1 mM (FIG. 15)",attenuated the Theobromine-stimulated signal
same,inhibition of calcium mobilization induced by Dextromethorphan-HBr,"[3]; 100 μM Dextromethorphan-HBr, blocker 0.3 μM to 1,000 μM, at high concentrations (FIG. 25)",inhibited calcium mobilization
same,inhibition of calcium mobilization induced by Caffeine,"[3]; 3 mM Caffeine, blocker 1,000 μM, hTBEC 56 cells (FIG. 27)",inhibited calcium mobilization
same,inhibition of calcium mobilization induced by Theobromine,"[3]; 3000 μM Theobromine, blocker 1 μM to 3,000 μM, at high concentrations (FIG. 26)",inhibited calcium mobilization
